Peptide text beside a SMILES is read from it.
Experiments:
[1] = target: Somatostatin receptor type 3 (Homo sapiens, UniProt P32745)
[2] = target: Somatostatin receptor type 2 (Homo sapiens, UniProt P30874)
[3] = target: Somatostatin receptor type 4 (Homo sapiens, UniProt P31391)
Somatostatin receptor type 4, sequence (P31391 whole entry): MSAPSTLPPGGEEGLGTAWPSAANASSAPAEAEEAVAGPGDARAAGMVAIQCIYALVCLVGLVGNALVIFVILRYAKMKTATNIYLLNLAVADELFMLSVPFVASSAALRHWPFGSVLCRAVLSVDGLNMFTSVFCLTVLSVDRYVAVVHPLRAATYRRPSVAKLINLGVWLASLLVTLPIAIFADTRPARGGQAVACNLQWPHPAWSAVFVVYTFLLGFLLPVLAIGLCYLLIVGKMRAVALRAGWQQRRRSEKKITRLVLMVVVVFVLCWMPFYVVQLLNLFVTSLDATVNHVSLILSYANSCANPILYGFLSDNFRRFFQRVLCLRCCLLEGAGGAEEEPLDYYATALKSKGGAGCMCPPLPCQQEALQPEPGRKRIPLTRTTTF

Somatostatin receptor type 3, sequence (P32745 whole entry): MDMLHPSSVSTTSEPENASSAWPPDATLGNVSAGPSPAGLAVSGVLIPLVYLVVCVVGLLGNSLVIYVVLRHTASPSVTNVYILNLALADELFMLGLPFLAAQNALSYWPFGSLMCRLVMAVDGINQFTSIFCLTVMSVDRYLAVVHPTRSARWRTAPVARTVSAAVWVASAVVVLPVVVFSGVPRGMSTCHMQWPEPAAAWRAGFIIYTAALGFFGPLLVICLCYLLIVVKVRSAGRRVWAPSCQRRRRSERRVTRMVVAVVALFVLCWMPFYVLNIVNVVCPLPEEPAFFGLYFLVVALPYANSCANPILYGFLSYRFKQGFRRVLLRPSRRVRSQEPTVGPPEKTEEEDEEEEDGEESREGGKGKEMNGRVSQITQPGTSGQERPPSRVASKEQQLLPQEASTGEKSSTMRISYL
Somatostatin receptor type 2, sequence (P30874 whole entry): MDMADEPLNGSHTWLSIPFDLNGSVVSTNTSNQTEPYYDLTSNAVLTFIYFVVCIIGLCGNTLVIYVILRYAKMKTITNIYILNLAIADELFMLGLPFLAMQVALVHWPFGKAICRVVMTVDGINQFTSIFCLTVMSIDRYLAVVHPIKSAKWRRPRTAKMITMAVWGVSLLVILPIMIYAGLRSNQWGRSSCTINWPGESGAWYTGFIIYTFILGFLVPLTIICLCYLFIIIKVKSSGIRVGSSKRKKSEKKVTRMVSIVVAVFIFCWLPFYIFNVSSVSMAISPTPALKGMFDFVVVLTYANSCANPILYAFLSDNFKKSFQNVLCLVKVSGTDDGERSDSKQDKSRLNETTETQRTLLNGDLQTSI

Ki [1] [nM] | Ki [2] [nM] | Ki [3] [nM] | SMILES
0.6 | 1 | 4.7 | C[C@@H](O)[C@@H]1NC(=O)[C@H](Cc2ccc(O)cc2)NC(=O)[C@H]([C@@H](C)O)NC(=O)[C@H](CCCCN)NC(=O)[C@H](Cc2c[nH]c3ccccc23)NC(=O)[C@H](Cc2ccccc2)NC(=O)[C@H](Cc2ccccc2)NC(=O)[C@H](CC(N)=O)NC(=O)[C@H](CCCCN)NC(=O)CCCCC[C@@H](C(=O)O)NC(=O)[C@H](CO)NC1=O [CGP-23996] (HELM PEPTIDE1{K.N.F.F.W.K.T.Y.T.S.[O=C(O)[C@H](CCCCCC(=O)[*:3])N[*:1]]}$PEPTIDE1,PEPTIDE1,1:R1-11:R3$$$V2.0)
268 |  |  | CC(C)[C@@H]1NC(=O)[C@H](CCCCN)NC(=O)[C@@H](Cc2c[nH]c3ccccc23)NC(=O)[C@H](Cc2ccc(O)cc2)NC(=O)[C@H](C)N(C)C(=O)[C@H](Cc2ccccc2)NC1=O [CAS_3086456]

— BindingDB's records for doi:10.1210/edrv-16-4-427 (University of Pennsylvania, 1995)
